Results from ChEMBL document CHEMBL2157908, “Formylated polyamines as peptidomimetics” (Bioorg Med Chem Lett, 2012).
Activity calls are given as the source filed them. No cut-off for these calls is given here.

Legend:
[1] = Half life in human serum; assay type: ADME, cell-free
[2] = molecular target: T1, Mu-type opioid receptor (Homo sapiens, UniProt P35372); assay: Displacement of [3H]DAMGO from human recombinant mu-opioid receptor expressed in CHO cells after 60 mins by liquid scintillation assay; assay type: cell-based
T1 sequence (P35372 whole entry): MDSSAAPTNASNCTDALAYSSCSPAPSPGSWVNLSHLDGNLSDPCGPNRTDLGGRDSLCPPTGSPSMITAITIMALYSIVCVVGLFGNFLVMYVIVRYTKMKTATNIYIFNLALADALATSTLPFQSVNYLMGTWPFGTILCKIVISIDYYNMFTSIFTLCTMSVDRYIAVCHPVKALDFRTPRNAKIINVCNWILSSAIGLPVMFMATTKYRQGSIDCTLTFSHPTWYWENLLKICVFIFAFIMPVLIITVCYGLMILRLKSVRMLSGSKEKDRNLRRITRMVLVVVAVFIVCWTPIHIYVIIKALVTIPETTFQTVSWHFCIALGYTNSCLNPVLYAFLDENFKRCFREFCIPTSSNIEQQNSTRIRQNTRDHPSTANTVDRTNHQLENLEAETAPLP

[3] = molecular target: T1, Mu-type opioid receptor; assay: Agonist activity at human recombinant mu-opioid receptor expressed in CHO cells after 60 mins by [35S]GTPgammaS binding assay; assay type: functional, cell-based

CC(C)C[C@H](CN(C=O)[C@H](Cc1ccccc1)CN(C=O)CCN(C=O)CCN(C=O)[C@@H](CN)Cc1ccc(O)cc1)NS(C)(=O)=O
half-life [1]: 41 h
IC50 [2]: 3.2 µM
Ki [2]: 0.4 µM
Activity [3]: inactive
